According to patent US20240226063A1, “SOLUBLE ANALOGUES OF 6BIO THEREOF AND IMPLEMENTATION THEREOF” (JAWAHARLAL NEHRU CENTRE FOR ADVANCED SCIENTIFIC RESEARCH, priority 2021, published 2024):
Entries after “also recorded” stand apart in the source; their conditions may differ.

Experiments:
Syngap1^+/− mice [1] = experiment: Open field test (hyperactivity/motor function and anxiety); format: in vivo; settings: 5 mg/kg intraperitoneal
Procedure: (§1) The ability of 6-BIO on the behavioural deficits related to neurodevelopmental disorders was observed based on its theoretical ability to correct synaptic plasticity, EGABA, and behavioural dysfunction in mice with mutated Syngap1 gene. Two populations of mice tested were: wild type (WT) mice and mice with mutated Syngap1 gene referred to as Syngap1^+/− mice. […] In the control group and the Syngap1^+/− mice, the subjects were administered with 5 mg/kg of 6-BIO based on the bodyweight of the subject. […] For example, 2-9, male mice were used.
Syngap1^+/− mice in groups I, II and III. […]

Syngap1^+/− mice [2] = experiment: Novel object recognition test (memory); format: in vivo; settings: for Novel Object Recognition (memory, discrimination index): 5 mg/kg intraperitoneal
Procedure: as §1
The wild type and Syngap1^+/− mice in the absence of any treatment were compared with the mice intra-peritoneally injected with 6-BIO and their behaviour was recorded with regards to recognition of a familiar object versus reaction to a novel object.

Syngap1^+/− mice [3] = experiment: Social novelty test (social interaction and social preference); format: in vivo; settings: for Social Interference (social interaction, time with stranger 1 vs empty jar) / Social Preference (time with stranger 2 vs stranger 1): 5 mg/kg intraperitoneal
Procedure: as §1
Social Novelty Test: Similar to the novel object recognition in Example 2, the social novelty test was performed for all age groups at 80 days. The social novelty test was performed based on the social interaction (SI) and social preference (SP) of the control wild type and Syngap1^+/− mice and wild type and Syngap1^+/− treated with 6-BIO. The social interaction was observed based on the time spent by the mice in isolation in comparison to time spent with one other mouse (stranger 1) and the social preference was observed based on the time spent with two different mice (stranger 1 and stranger 2)

Syngap1^+/− mice [4] = experiment: Fluoroethyl-based seizure threshold; format: in vivo; settings: intraperitoneal, Group III (P30-80), recorded P80
Procedure: For investigating the effect of 6-BIO on the wild type and Syngap1^+/− mice in group III (P30-P80), mice were injected intraperitoneally with 6-BIO. The subsequent fluoroethyl-based seizure threshold i.e., susceptibility of mice to epileptic seizures was evaluated and plotted as grouped data showing individual points for the involuntary and rhythmic muscular contractions and relaxations referred to as clonus.

Syngap1^+/− mice [5] = experiment: Long term potential; format: in vivo; settings: 5 mg/kg intraperitoneal
Syngap1^+/− mice [6] = experiment: EGABA, Cl^− reversal potential; format: in vivo; settings: 5 mg/kg intraperitoneal, Group I (P10-16), recorded P16
MPTP mice = experiment: MPTP mouse model of Parkinsonism (rotarod and open field test); format: in vivo; settings: 5 mg/kg intraperitoneal, administered along with MPTP
Procedure: The effect of 6-BIO on neurodegenerative disorders such as Parkinson's was evaluated based on testing the ability of 6-BIO on toxic protein aggregates such as the SNCA/a-synuclein protein in mice (FIG. 9) and the modulation of the autophagy flux (FIG. 10). MPTP is a widely accepted mouse model to study Parkinsonism. […] For the study, mice were intraperitoneally injected with 6-BIO at a concentration of 5 mg/kg based on the body weight of the mice.
FIG. 9 and FIG. 10 illustrated the results observed on the effect of 6-BIO and its derivatives on neurodegenerative disorders. FIG. 9 depicts the effect of administration of 5 mg/kg of 6-BIO on (A) the latency to fall of various cohorts namely placebo mice, MPTP mice (Parkinsonian mice) and the MPTP mice administered with 6-BIO (MPTP+Co) was assessed by rotarod test (B) Representative trajectory maps of all mentioned cohorts as analysed by open field test. (C) Periphery distance travelled by all indicated cohorts as assessed by open field test. […]

autophagy flux = experiment: Autophagy flux (levels of autophagosomes and autolysosomes); format: cell-based; settings: cells, compared to growth media control
Source text: The derivatives of 6-BIO such as the compound 6-methoxyindirubin oxime (6-MIO), compound 50 and compound 51 were synthesized to improve their water solubility. The effect of 6-BIO and the aforementioned derivatives of 6-BIO on autophagy flux in the form of autophagosomes and autolysosomes are depicted in FIG. 10. […] Thus, the derivatives have a better potency to restore neuronal function to wild type level in neurodevelopmental disorders and play a neuroprotective role in neurodegeneration.

[7] = Group II (P10-80), recorded P42/P80
[8] = Group III (P30-80), recorded P80

SMILES: O=C1Nc2cc(Br)ccc2/C1=C1/Nc2ccccc2/C1=N\O [6-BIO, (2′Z, 3′E)-6-Bromoindirubin-3′-oxime]
- Open field, Anxiety (number of entries in the centre) (Syngap1^+/− mice [1]; Group I (P10-16), recorded P16): anxiety was corrected
- Open field, Motor function (hyperactivity, total distance travelled) (Syngap1^+/− mice [1]; Group I (P10-16), recorded P16): hyperactivity was corrected
- Open field, Anxiety (number of entries in the centre) (Syngap1^+/− mice [1]; Group I (P10-16), recorded P80): anxiety was corrected; also recorded: ameliorates
- Open field, Motor function (hyperactivity, total distance travelled) (Syngap1^+/− mice [1]; Group I (P10-16), recorded P80): partial correction of hyperactivity; also recorded: ameliorates hyperactivity
- Open field, Anxiety (number of entries in the centre) (Syngap1^+/− mice [1]; [7]): anxiety was corrected
- Open field, Motor function (hyperactivity, total distance travelled) (Syngap1^+/− mice [1]; [7]): partial correction was observed
- Open field, Anxiety (number of entries in the centre) (Syngap1^+/− mice [1]; [8]): partial correction of the anxiety
- Open field, Motor function (hyperactivity, total distance travelled) (Syngap1^+/− mice [1]; [8]): no rescue behaviour
- Novel Object Recognition (memory, discrimination index) (Syngap1^+/− mice [2]; Group I (P10-16), recorded P80): Corrected
- Novel Object Recognition (memory, discrimination index) (Syngap1^+/− mice [2]; [7]): Corrected
- Novel Object Recognition (memory, discrimination index) (Syngap1^+/− mice [2]; Group III (P30-80), recorded P80, 5 mg/kg): corrected the memory deficits
- Memory deficits (novel object recognition, discrimination index) (Syngap1^+/− mice [2]; all three age groups, behaviour at 80 days): substantially corrected memory deficits
- Social Interference (social interaction, time with stranger 1 vs empty jar) (Syngap1^+/− mice [3]; Group I (P10-16), recorded P80): Corrected
- Social Preference (time with stranger 2 vs stranger 1) (Syngap1^+/− mice [3]; Group I (P10-16), recorded P80, 5 mg/kg): lack of improvement
- Social Interference (social interaction, time with stranger 1 vs empty jar) (Syngap1^+/− mice [3]; [7]): Corrected
- Social Preference (time with stranger 2 vs stranger 1) (Syngap1^+/− mice [3]; [7]): Corrected
- Social Interference (social interaction, time with stranger 1 vs empty jar) (Syngap1^+/− mice [3]; [8]): Corrected
- Social Preference (time with stranger 2 vs stranger 1) (Syngap1^+/− mice [3]; [8]): Corrected
- Social interaction: time spent with stranger 1 as compared to the empty jar (Syngap1^+/− mice [3]; all age groups, recorded at P80): comparable to wild type mice
- Seizure threshold (fluoroethyl-based, tonic-clonic) (Syngap1^+/− mice [4]): corrected the seizure threshold
- Long term potential (Syngap1^+/− mice [5]; [7]): Corrected
- Long term potential (Syngap1^+/− mice [5]; [8]): Corrected
- EGABA, Cl^− reversal potential (Syngap1^+/− mice [6]): Corrected
- Effect on MPTP-induced neurodegeneration (rotarod latency to fall, open field periphery distance) (MPTP mice): protects neurons from degeneration
- Levels of autophagosomes (autophagy flux): increased

SMILES: COc1ccc2c(c1)NC(=O)C2=C1Nc2ccccc2C1=NO [6-MIO, 6-methoxyindirubin oxime]
- Levels of autolysosomes (autophagy flux): increased
- Levels of autophagosomes (autophagy flux): increased

SMILES: O=C1Nc2cc(Br)ccc2/C1=C1/Nc2ccccc2/C1=N\O [compound 50, (2Z,3E)-6′-bromo-3-(hydroxyimino)-[2,3′-biindolinylidene]-2′-one]
- Levels of autolysosomes (autophagy flux): increased

SMILES: O=C1Nc2cc(Br)ccc2/C1=C1/Nc2ccccc2/C1=N\OCCO [compound 51, (2Z,3E)-6′-bromo-3-((2-hydroxyethoxy)imino)-[2,3′-biindolinylidene]-2′-one]
- Levels of autolysosomes (autophagy flux): increased
- Levels of autophagosomes (autophagy flux): increased
